Tests used:
[1] = system: NF-κB; test: NF-κB activity (SEAP and IL-8 production) in HT-29 clone 34 cells; format: cell-based, human
Procedure: Two in-vitro systems were used: human colonic cells (HT-29 clone 34) and human monocytes/macrophages (THP-1 blue cells). The human colonic adenocarcinoma HT-29 clone 34 cell line (passage 42-50) are adherent cells stably transfected with a NF-κB/SEAP reporter plasmid. They were cultured in DMEM high glucose (4.5 g/L) (Invitrogen) containing 1% of stable L-glutamine and supplemented with 10% of heat inactivated (one hour at 56° C.) Foetal Calf Serum (FCS) (Bioconcept, Allschwil, Switzerland), 1% of Penicillin/Streptomycin (Sigma) and 500 μg/ml of Geneticin (PAA, Pasching, Austria) at 37° C. in a 5% CO2/air incubator. Culture medium was renewed every two days until the cell monolayer reached ˜90% confluence. Cells were sub-cultured using 1× Trypsin/EDTA (Sigma). 10000 cells/well were seeded in 200 μl of culture medium in flat bottom white border 96 well plates (Greiner Bio One, Kremsmuenster, Austria). […] Cell culture supernatants were then collected for measurement of NF-κB activity (determination of secreted alkaline phosphatase and IL-8 production) using Phosphalight (Applied Biosystems) and IL-8 singleplex (Meso Scale, Gaithersburg, Md.) kits, respectively.

[2] = system: THP-1 blue cells; test: THP-1 blue cell viability (Cell Titer-Glo); format: cell-based, human; details: THP-1 blue cells (FIG. 6)
Procedure: 200000 cells/well were seeded in 100 μl of culture medium in 96 well flat bottom transparent plates. […] 20 μl of culture media containing (or not) LPS 055:B5 (Sigma) (100 ng/ml final) was added and the plates were incubated for 16 hours at 37° C. in a 5% CO2/air incubator.
Cell culture supernatants were carefully transferred to 96 well-plates for NF-κB activity measurement which is proportional to the level of secreted alkaline phosphatase. Briefly, 100 μl of supernatants were mixed with 150 μl of QuantiBlue (Invivogen) in a 96 well-plates incubated for 3 h at 37° C. before OD measurements at 620 nm with Sunrise microplate reader (Tecan, Mannedorf, Switzerland). Cell viability was determined using Cell Titer-Glo kit as described above.

[3] = system: AREc32 cells; test: AREc32 cell viability (ATP quantification, Cell Titer-Glo); format: cell-based; details: 24 h
Procedure: To determine the Nrf2 activation the samples were tested on AREc32 cells (seeded in 96 well plates) using 10 independent dilutions (1/2, 1/4, 1/6, 1/10, 1/15, 1/20, 1/25, 1/30, 1/40 and 1/50) and incubated for 24 hours at 37° C. in a 5% CO2/air incubator. The luciferase activity and the cell viability (ATP measurements) were determined using the Luciferase and Cell Titer-Glo kits from Promega.
The cell viability was also measured using a cell Titer-Glo kit (ATP quantification).

[4] = system: HT-29 clone 34 cells; test: HT-29 clone 34 cell viability (ATP, Cell Titer-Glo); format: cell-based, human; details: HT-29 clone 34 cells (FIG. 5)
Procedure: 10000 cells/well were seeded in 200 μl of culture medium in flat bottom white border 96 well plates (Greiner Bio One, Kremsmuenster, Austria). […] 20 μl of experimental medium containing (or not) LPS 055:B5 or rhTNF-α (100 and 10 ng/ml final, respectively) was added and the plates were incubated for 24 hours at 37° C. in a 5% CO2/air incubator.
Cell viability was determined by measuring ATP using Cell Titer-Glo kit (Promega). Briefly, remaining adherent HT-29 clone 34 cells were incubated for 10 min at room temperature under horizontal shaking (250 rpm) with 120 μl of Cell Titer-Glo reagent (pre-diluted twice in 1×PBS) and the luminescence was measured using Polarstar microplate reader (BMG, Offenburg, Germany) for 1000 ms with a gain value set to 3500.

[5] = system: Nrf2; test: Nrf2 reporter assay (AREc32 cells, ARE-luciferase); format: cell-based; details: 24 h, dose range 0 to 200 μM (FIG. 3)
Procedure: Activation of Nrf2 was measured using an Nrf2 reporter assay. This assay is based on the AREc32 cell line, from CRX biosciences (Dundee, Scotland), a stably transfected MCF7 (breast adenocarcinoma) cell line that contains a luciferase gene construct under the control of the ARE. Luciferase is an enzyme which digests luciferin and produces […]. Anti-oxidative molecules such as Tert-butylhydroquinone (TBHQ) induce luciferase transcription via the activation of Nrf2 that binds to ARE. Luciferase activity is determined using a luciferase kit form Promega (Madison, Wis.). The luciferase activity is proportional to the activation of Nrf2. […] The luciferase activity and the cell viability (ATP measurements) were determined using the Luciferase and Cell Titer-Glo kits from Promega. For each run the luciferase activities, measured in Relative Light Units (RLU), of all the wells were normalized with the mean of the luciferase activity of the cells only of all the plates. Among all the samples tested the normalization procedure was found not to affect the data and this observation permits the comparison of samples measured in different runs. For each sample the Nrf2 activation was calculated as follows: […] […] The luciferase content per sample allows a semi quantification of the Nrf2 activation by reflecting the amount of the Nrf2 activating molecule. […]

CC(=O)/C=C/C(=O)O [4-oxo-2-pentenoic acid]
inhibition of NF-κB activity ([1]; HT-29 clone 34 cells stimulated with LPS (FIG. 5)): inhibits NF-κB activity in a dose dependent manner
NF-κB activity (SEAP or IL-8 detection) in the absence of LPS ([1]; HT-29 clone 34 cells, no LPS, doses tested 3 to 400 μM): no NF-κB activity was observed
doses toxic to cells [2]: higher than 75 μM
doses at which viability of AREc32 cells was not affected [3]: lower than 70 μM
doses showing a decrease in cell viability [4]: > 50 µM
Nrf2 activation [5]: strongly activate Nrf2 in a dose dependent manner

From patent US9238015B2 (NESTEC S.A., priority 2012, dated 2016)
